# Where a name gives a salt, the structure may show the parent alone.
# Legend:
# [1] = tested on: MCP-1 production; assay: LPS induced MCP-1 production from human whole blood; assay type: cell-based; conditions: LPS 200 ng/mL, 18-24 hours
# Experimental: Activation of monocytic cells by agonists of toll-like receptors such as bacterial lipopolysaccharide (LPS) results in production of key inflammatory mediators including MCP-1. Such pathways are widely considered to be central to the pathophysiology of a range of auto-immune and inflammatory disorders. Blood is collected in a tube containing Sodium heparin (Leo Pharmaceuticals) (10 units of heparin/mL of blood). 96-well compound plates containing 1 μL test sample in 100% DMSO were prepared (two replicates on account of donor variability). 130 μL of whole blood was dispensed into each well of the 96-well compound plates and incubated for 30 min at 37° C., 5% CO2. 10 μL of lipopolysaccharide (from Salmonella typhosa; L6386) made up in PBS (200 ng/mL final assay concentration) was added to each well of the compound plates. The plates were then placed in the humidified primary cell incubator for 18-24 hours at 37° C., 5% CO2. 140 μL of PBS was added to all wells of the compound plates containing blood. The plates were then sealed and centrifuged for 10 mins at 2500 rpm. […] 150 μL of 2×MSD Read Buffer T (stock 4×MSD Read Buffer T was diluted 50:50 with de-ionised water) was then added to each well and the plates read on the MSD Sector Imager 6000. Concentration response curves for each compound were generated from the data and an pIC50 value was calculated.
# [2] = target: T1, recombinant human CES1 (Homo sapiens, UniProt P23141); assay: Hydrolysis by hCES-1 (HPLC assay); assay type: in vitro ADME; conditions: 50 μM test compound, 50 nM CES1, 20° C., pH 7.5, n=2
# T1 construct: Recombinant human CES1 (Gly18-Glu563, bearing a polyhistidine tag at the C-terminus); purchased Novoprotein, Summit, N.J., USA C450; host or cells: human cells
# T1 sequence (P23141 18-563): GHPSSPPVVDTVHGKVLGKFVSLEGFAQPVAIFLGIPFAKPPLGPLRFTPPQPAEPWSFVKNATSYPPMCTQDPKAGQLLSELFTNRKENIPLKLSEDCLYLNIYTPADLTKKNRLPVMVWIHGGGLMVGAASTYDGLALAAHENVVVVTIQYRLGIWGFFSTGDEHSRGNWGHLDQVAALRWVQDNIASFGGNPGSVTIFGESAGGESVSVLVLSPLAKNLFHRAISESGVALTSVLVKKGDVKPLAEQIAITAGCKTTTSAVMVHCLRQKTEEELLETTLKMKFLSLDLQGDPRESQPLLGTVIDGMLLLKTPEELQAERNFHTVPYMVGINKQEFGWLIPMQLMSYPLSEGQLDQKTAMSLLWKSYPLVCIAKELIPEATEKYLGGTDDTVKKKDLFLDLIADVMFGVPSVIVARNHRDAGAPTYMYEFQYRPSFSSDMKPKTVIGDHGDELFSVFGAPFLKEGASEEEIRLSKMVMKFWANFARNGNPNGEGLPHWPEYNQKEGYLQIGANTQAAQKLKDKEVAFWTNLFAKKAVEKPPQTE
# Experimental: Hydrolysis of ESM-containing BET inhibitors by carboxylesterase 1 (CES1) is one aspect of delivering a targeted molecule. Rates of hydrolysis of certain compounds of the invention by recombinant human CES1 were determined using an HPLC assay. Recombinant human CES1 (Gly18-Glu563, bearing a polyhistidine tag at the C-terminus) expressed in human cells and purified to homogeneity was obtained from Novoprotein, Summit, N.J., USA (catalogue number C450). Reactions were run in 384 well plates at 20° C. in a buffer of 50 mM sodium phosphate pH 7.5/100 mM NaCl. Assays used a fixed concentration of test compound (50 μM) and CES1 (50 nM) and a time course of the reaction was obtained by stopping samples at increasing times by addition of formic acid to lower the pH. Stopped samples were subsequently analysed by HPLC to resolve product acid from unhydrolysed ester, using a 50×2 mm C18 […] reversed-phase column (Phenomenex Gemini) at a flow rate of 1 ml/min using a gradient of acetonitrile in water, containing 0.1% formic acid. Chromatogaphy was monitored using absorbance at 300 nm wavelength. The % of product formed was determined using integrated peak areas and used to determine the initial rate of the reaction. […]
# [3] = tested on: Bromodomains BRD2, BRD3, BRD4 and BRDT; assay: Fluoroligand binding to mutated vs non-mutated bromodomain (TR-FRET); set-up: species or system Human; conditions: single residue mutations in the acetyl lysine binding pocket
# Experimental: The binding of compounds of the invention to Bromodomains BRD2, BRD3, BRD4 and BRDT was assessed using mutated proteins to detect differential binding to either Binding Domain 1 (BD1) or Binding Domain 2 (BD2) on the bromodomain. These single residue mutations in the acetyl lysine binding pocket greatly lower the affinity of the fluoroligand (Reference Compound X) for the mutated domain (>1000 fold selective for the non-mutated domain). Therefore in the final assay conditions, binding of the fluoroligand to the mutated domain cannot be detected and subsequently the assay is suitable to determine the binding of compounds to the single non-mutated bromodomain.
# Recombinant Human Bromodomains [(BRD2 (1-473) (Y113A) and (Y386A), BRD3 (1-435) (Y73A) and (Y348A) BRD4 (1-477) (Y97A) and (Y390A) and BRDT (1-397) (Y66A) and (Y309A)] were expressed in E. coli cells (in pET15b vector for BRD2/3/4 and in pET28a vector for BRDT) with a 6-His tag at the N-terminal. The His-tagged Bromodomain pellet was resuspended in 50 mM HEPES (pH7.5), 300 mM NaCl, 10 mM imidazole & 1 μl/ml protease inhibitor cocktail and extracted from the E. coli cells using sonication and purified using a nickel sepharose high performance column, the proteins were washed and then eluted with a linear gradient of 0-500 mM imidazole with buffer 50 mM HEPES (pH7.5), 150 mM NaCl, 500 mM imidazole, over 20 column volumes. […]
smiles,measurement,setting,value
"Cc1cc(-c2nc3cc(CN[C@H](C(=O)OC(C)C)[C@@H](C)O)ccc3n2CC2CCOCC2)cn(C)c1=O (as salt: edisylate) (hydrate or solvate) [Example 1, (2S,3R)-Isopropyl 2-(((2-(1,5-dimethyl-6-oxo-1,6-dihydropyridin-3-yl)-1-((tetrahydro-2H-pyran-4-yl)methyl)-1H-benzo[d]imidazol-5-yl)methyl)amino)-3-hydroxybutanoate]",melting point,,~ 223 °C
"Cc1cc(-c2nc3cc(CN[C@H](C(=O)OC(C)C)[C@@H](C)O)ccc3n2CC2CCOCC2)cn(C)c1=O [Example 1, (2S,3R)-Isopropyl 2-(((2-(1,5-dimethyl-6-oxo-1,6-dihydropyridin-3-yl)-1-((tetrahydro-2H-pyran-4-yl)methyl)-1H-benzo[d]imidazol-5-yl)methyl)amino)-3-hydroxybutanoate]",IC50,"[1]; Homo sapiens, read-out: mean pIC50, LPS induced MCP-1 production (converted)",25.1 nM
same,mean rate of hydrolysis (specific activity of CES1),[2],0.21 μM/min/μM
COc1ccc2c(c1)C(c1ccc(Cl)cc1)=N[C@@H](CC(=O)NCCCCCNC(=O)CCCCCC1(C)/C(=C/C=C/C=C/C3=[N+](CCCCS(=O)(=O)O)c4ccc(S(=O)(=O)O)cc4C3(C)C)N(CCCCS(=O)(=O)[O-])c3ccc(S(=O)(=O)O)cc31)c1nnc(C)n1-2 (some centres unmarked) [Reference Compound X],selectivity for the non-mutated domain over the mutated domain,[3],> 1000 fold
"Cc1cc(-c2nc3cc(CN[C@H](C(=O)OC(C)C)[C@@H](C)O)ccc3n2CC2CCOCC2)cn(C)c1=O [edisylate salt of Example 1, Edisylate Salt of (2S,3R)-Isopropyl 2-(((2-(1,5-dimethyl-6-oxo-1,6-dihydropyridin-3-yl)-1-((tetrahydro-2H-pyran-4-yl)methyl)-1H-benzo[d]imidazol-5-yl)methyl)amino)-3-hydroxybutanoate]","mean pIC50, LPS induced MCP-1 production",[1],7.5
